Tested on: pancreatic xenografts
Conditions: NOD/SCID/γc, mouse, in vivo, iv
Description: To quantify intratumoral drug distribution, serial sections of the tumor perpendicular to the PED were imaged by quantitative confocal microscopy. […] Tissue penetration within the tumor was quantified by line scans starting from the entry site for paclitaxel (PED—tumor/device interface; IV—vessels).

paclitaxel presence radius around the vessels: ≤ 10 micron
SMILES: CC(=O)O[C@H]1C(=O)[C@@]2(C)[C@H]([C@H](OC(=O)c3ccccc3)[C@]3(O)C[C@H](OC(=O)[C@H](O)[C@@H](NC(=O)c4ccccc4)c4ccccc4)C(C)=C1C3(C)C)[C@]1(OC(C)=O)CO[C@@H]1C[C@@H]2O [paclitaxel]

From patent publication US12611492B2, “Local drug delivery devices and methods for treating cancer” (Massachusetts Institute of Technology, priority 2013, dated 2026)
